In one experiment the target is T1, MAP2K1 (MEK1) (Homo sapiens, UniProt Q02750).
T1 construct: purchased ThermoFisher
Nature of the experiment: MEK Inhibition Assay-2 (Example 3): Z'-LYTE biochemical assay. Conditions: Table 6; procedure of Example 3; read-out: IC50 against MEK1. The procedure:
MEK1 inhibitory activity of compounds were tested using the following procedure (protocol available at thermofisher.com/content/dam/LifeTech/migration/files/drug-discovery/pdfs.par.60256.file.dat/20130430%20ssbk%20customer%20protocol%20and%20assay%20conditions.pdf). The Z′-LYTE biochemical assay (ThermoFisher) employs a fluorescence-based, coupled-enzyme format and is based on the differential sensitivity of phosphorylated and non-phosphorylated peptides to proteolytic cleavage.
Test compounds in 100% DMSO were screened in 1% DMSO (final) in the well. For 10 point titrations, 3-fold serial dilutions are conducted from the starting concentration of 30 μM.
After the 1 hour incubation, 5 μL of a 1:1024 dilution of Development Reagent A (available from Invitrogen, catalog no. PV3295) was added.
ATP solutions were diluted to a 4× working concentration in Kinase Buffer (50 mM HEPES pH 7.5, 0.01% BRIJ-35, 10 mM MgCl2, 1 mM EGTA). ATP Km apparent was previously determined using a Z′-LYTE assay. The Development Reagent was diluted in Development Buffer (available from Invitrogen, catalog no. P3127).
Assay Protocol: 2.5 μL of 4× test compound or 100 nL of 100× Test Compound plus 2.4 μL Kinase Buffer, 5 μL of the 2× Peptide/Kinase Mixture, 2.5 μL of 4×ATP Solution were added to the plates and placed on a shake plate for 30-seconds. The kinase reaction was allowed to proceed for 60-minute at room temperature, before 5 μL of Development Reagent Solution was added, and the mixture agitated for 30-seconds on a shake plate. The mixture was incubated for 60-minute at room temperature. Fluorescence was measured using a plate reader and the data were analyzed.
This control yielded 100% cleaved peptide in the Development Reaction. The 100% Phosphorylation Control, which consisted of a synthetically phosphorylated peptide of the same sequence as the peptide substrate, was designed to allow for the calculation of percent phosphorylation. This control yielded a very low percentage of cleaved peptide in the Development Reaction. The 0% Phosphorylation and 100% Phosphorylation Controls allow for the calculation of the percent phosphorylation achieved in a specific reaction well.
The minimum emission ratio in a screen was established by the 0% Inhibition Control, which contained active kinase. This control was designed to produce a 10-50% phosphorylated peptide in the Kinase Reaction. Cascade assays may produce up to 70% phosphorylated peptide.
A known inhibitor control standard curve, 10 point titration, was run for each individual kinase on the same plate as the kinase to ensure the kinase was inhibited within an expected IC50 range previously determined.
The following controls are prepared for each concentration of Test Compound assayed. […] The expected value for a non-interfering compound should be 100%. Any value outside of 90% to 110% was flagged. […] The expected value for a non-fluorescence compound should be 0%. Any value >20% was flagged.
The data in Table A was calculated. XLfit from IDBS was used. The dose response curve was curve fit to model number 205 (sigmoidal dose-response model).

For another experiment, the target named is T2, MEK1 (Homo sapiens, UniProt Q02750).
T2 construct: N-terminal His-tagged recombinant human full length protein; purchased Invitrogen PV3303; host or cells: insect cells
T2 sequence (Q02750 whole entry): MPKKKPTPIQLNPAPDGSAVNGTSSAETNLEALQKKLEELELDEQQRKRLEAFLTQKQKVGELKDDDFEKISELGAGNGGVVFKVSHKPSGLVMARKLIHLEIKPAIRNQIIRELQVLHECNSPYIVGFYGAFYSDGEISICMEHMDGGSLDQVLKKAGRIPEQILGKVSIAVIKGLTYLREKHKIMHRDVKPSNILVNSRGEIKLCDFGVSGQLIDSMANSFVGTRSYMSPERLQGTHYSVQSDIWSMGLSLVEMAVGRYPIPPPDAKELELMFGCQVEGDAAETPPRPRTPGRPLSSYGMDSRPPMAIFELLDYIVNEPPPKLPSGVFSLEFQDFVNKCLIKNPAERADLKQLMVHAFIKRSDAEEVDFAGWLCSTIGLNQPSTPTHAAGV
Description: MEK Inhibition Assay-1 (Example 2): 33P-ATP, P81 filter-binding kinase assay. Conditions: Example 2, read-out: Assay 1: biochemical MEK IC50. On the procedure: The following procedure can be used to measure biochemical activity. MEK1 inhibitory activity of compounds were tested using the following procedure. […] Nat Biotechnoi 2011, 29(11), 1039-45.
• Reaction buffer: 20 mM Hepes (pH 7.5), 10 mM MgCl2, 1 mM EGTA, 0.02% Brij35, 0.02 mg/mL BSA, 0.1 mM Na3VO4, 2 mM DTT, 1% DMSO • Enzyme: MEK1, Invitrogen cat #PV3303 • N-terminal His-tagged recombinant human full length protein, expressed in insect cells. Activated in vitro by RAF1. MW=49.2 kDa, GenBank Accession No. NP_002746. • Substrate: 5 μM ERK2 (K52R), • Kinase-dead mutant, (GenBank Accession No. NM_0011949), aa2-358 with N-terminal His6 tag, MW=43.63 kDa, expressed in E. coli.
The substrate was prepared in freshly prepared Reaction Buffer. The kinase was delivered into the substrate solution and gently mixed. Test compounds were delivered in 100% DMSO into the kinase reaction mixture by Acoustic technology (Echo550; nanoliter range), and incubated for 20 min at room temperature. ^33P-ATP was delivered into the reaction mixture to initiate the reaction. The reaction mixture was incubated for 2 hours at room temperature. Kinase activity was detected by P81 filter-binding method.

[1] abbreviates: Table 7, compounds of formula (I).
The mark [2] stands for this setting: Table 10, compounds of formula (IV).

Like-named read-outs stand apart in the source and are kept apart here.

T1 sequence (Q02750 whole entry): as above

As a reminder, the IC50 is the concentration that gives 50% inhibition. On to `N#Cc1ccc(C(=O)O)c(Nc2ccc(I)cc2F)c1` [Compound 1.001], for which the half-inhibitory concentration (IC50) on MAP2K1 (MEK1) was 0.15 to 1.5 µM.
Still for that read-out and setting: with `N#Cc1ccc(C(=O)N2CC(O)C2)c(Nc2ccc(I)cc2F)c1` [Compound 1.002] the figure was more than 1.5 µM.
In the case of `CONC(=O)c1ccc(C#N)cc1Nc1ccc(I)cc1F` [Compound 1.007], the concentration for half-maximal inhibition (IC50) at MAP2K1 (MEK1) and at MEK1 (setting [1]) was 0.15 to 1.5 µM in each case.
Regarding `CCONC(=O)c1ccc(C#N)cc1Nc1ccc(I)cc1F` [Compound 1.008], the IC50 on MAP2K1 (MEK1) was 0.15 to 1.5 µM; at MEK1 (setting [1]) it was not above 0.15 µM.
`CCCONC(=O)c1ccc(C#N)cc1Nc1ccc(I)cc1F` [Compound 1.009]: the IC50 at MAP2K1 (MEK1) and at MEK1 (setting [1]) was 0.15 to 1.5 µM each time.
For the compound `N#Cc1ccc(C(=O)NOCCO)c(Nc2ccc(I)cc2F)c1` [Compound 1.010], the IC50 on MAP2K1 (MEK1) and at MEK1 (setting [1]) was not above 0.15 µM each time.
Turning to `Cc1cc(I)ccc1Nc1cc(C#N)ccc1C(=O)NOCCO` [Compound 1.011], at MAP2K1 (MEK1), the IC50 lay within 0.15 to 1.5 µM.
As for `N#Cc1ccc(C(=O)NOCC2CC2)c(Nc2ccc(I)cc2F)c1` [Compound 1.012], the IC50 on MAP2K1 (MEK1) lay in the range of 0.15 to 1.5 µM.
For `Cc1cc(I)ccc1Nc1cc(C#N)ccc1C(=O)NOCC1CC1` [Compound 1.013], the IC50 on MAP2K1 (MEK1) was in the range of 0.15 to 1.5 µM.
Still for that read-out and setting: in the case of `N#Cc1ccc(C(=O)NO)c(Nc2ccc(I)cc2F)c1` [Compound 1.017] it was not above 0.15 µM; in that of `N#Cc1ccc(C(=O)NOCCN)c(Nc2ccc(I)cc2F)c1` [Compound 1.018], 0.15 to 1.5 µM; in that of `COC(=O)CCONC(=O)c1ccc(C#N)cc1Nc1ccc(I)cc1F` [Compound 1.022], more than 1.5 µM.
For the compound `N#Cc1ccc(C(=O)NOCCO)c(Nc2ccc(I)cc2F)c1F` [Compound 1.030], the IC50 at MAP2K1 (MEK1) and at MEK1 (setting [1]) was not above 0.15 µM each time.
`N#Cc1ccc(C(=O)NOCC2CC2)c(Nc2ccc(I)cc2F)c1F` [Compound 1.031]: the IC50 at MAP2K1 (MEK1) and at MEK1 (setting [1]) was not above 0.15 µM in each case.
`CC(=O)c1sc(Nc2ccc(I)cc2F)c(C(=O)NOCCO)c1C` [Compound 4.013]: the IC50 on MAP2K1 (MEK1) is 0.15 to 1.5 µM; at MEK1 (setting [2]), not above 0.5 µM.
Turning to `CC(=O)c1sc(Nc2ccc(I)cc2F)c(C(=O)NC[C@H](O)CO)c1C` [Compound 4.014], at MAP2K1 (MEK1), the half-maximal inhibitory concentration (IC50) was in the range of 0.15 to 1.5 µM.
For `CC(=O)c1sc(Nc2ccc(I)cc2F)c(C(=O)NC[C@@H](O)CO)c1C` [Compound 4.015], on MAP2K1 (MEK1), the IC50 was in the range of 0.15 to 1.5 µM.
Take `CC(=O)c1sc(Nc2ccc(I)cc2F)c(C(=O)N[C@@H]2CCCNC2)c1C` [Compound 4.016]: at MEK1 (setting [2]), the IC50 fell in the range of 0.5 to 1 µM.
Regarding `CC(=O)c1sc(Nc2ccc(I)cc2F)c(C(=O)N[C@@H]2CCNC2)c1C` [Compound 4.017], the IC50 on MEK1 (setting [2]) lay in the range of 0.5 to 1 µM.
On to `CC(=O)c1sc(Nc2ccc(I)cc2F)c(C(=O)N2CC[C@@H](N)C2)c1C` [Compound 4.018], for which the concentration for half-maximal inhibition (IC50) at MEK1 (setting [2]) fell in the range of 5 to 10 µM.
In the case of `CC(=O)c1sc(Nc2ccc(I)cc2F)c(C(=O)NCC(C)(C)N)c1C` [Compound 4.020], on MEK1 (setting [2]), the concentration for half-maximal inhibition (IC50) was in the range of 1 to 5 µM.
Take `CONC(=O)c1c(Nc2ccc(I)cc2F)sc(C(C)=O)c1C` [Compound 4.021]: the IC50 at MEK1 (setting [2]) was in the range of 0.5 to 1 µM.
`CCONC(=O)c1c(Nc2ccc(I)cc2F)sc(C(C)=O)c1C` [Compound 4.022]: the 50% inhibitory concentration (IC50) at MEK1 (setting [2]) was not above 0.5 µM.
As to `CC(=O)c1sc(Nc2ccc(I)cc2F)c(C(=O)NOCC2CC2)c1C` [Compound 4.023], the IC50 at MEK1 (setting [2]) was not above 0.5 µM.
`O=C1CCCc2c1sc(Nc1ccc(I)cc1F)c2C(=O)NOC[C@H](O)CO` [Compound 4.030]: at MAP2K1 (MEK1), the half-inhibitory concentration (IC50) is not above 0.15 µM.
Turning to `O=C1CCCc2c1sc(Nc1ccc(I)cc1F)c2C(=O)NOCC1CC1` [Compound 4.032], the values for the IC50 on MAP2K1 (MEK1) and on MEK1 (setting [2]) were not above 0.15 µM and not above 0.5 µM, respectively.
On to `NCCONC(=O)c1c(Nc2ccc(I)cc2F)sc2c1CCCC2=O` [Compound 4.033], for which, at MAP2K1 (MEK1), the IC50 is not above 0.15 µM.
Turning to `O=C1CCCc2c1sc(Nc1ccc(I)cc1F)c2C(=O)NC[C@H](O)CO` [Compound 4.034], the concentration for half-maximal inhibition (IC50) at MAP2K1 (MEK1) is not above 0.15 µM.
With `O=C1CCCc2c1sc(Nc1ccc(I)cc1F)c2C(=O)NC[C@@H](O)CO` [Compound 4.035], the IC50 on MAP2K1 (MEK1) was not above 0.15 µM.
In the case of `O=c1c2c(Nc3ccc(I)cc3F)cncc2ccn1C[C@@H](O)CO` [Compound 5.001], the IC50 at MAP2K1 (MEK1) is not above 0.15 µM.
On to `O=c1c2c(Nc3ccc(I)cc3F)cncc2ccn1C[C@H](O)CO` [Compound 5.002], for which, at MAP2K1 (MEK1), the IC50 is not above 0.15 µM.
Same read-out and setting: with `NCCCn1ccc2cncc(Nc3ccc(I)cc3F)c2c1=O` [Compound 5.003] the figure was 0.15 to 1.5 µM; with `O=C(O)Cn1ccc2cncc(Nc3ccc(I)cc3F)c2c1=O` [Compound 5.004], more than 1.5 µM; with `COC(=O)Cn1ccc2cncc(Nc3ccc(I)cc3F)c2c1=O` [Compound 5.005], more than 1.5 µM.
With `O=c1c2c(Nc3ccc(I)cc3F)cncc2ccn1O` [Compound 5.006], the IC50 on MAP2K1 (MEK1) lay within 0.15 to 1.5 µM.
For `O=c1c2c(Nc3ccc(I)cc3F)cncc2ccn1OCCO` [Compound 5.007], the IC50 at MAP2K1 (MEK1) is 0.15 to 1.5 µM.
For the compound `O=C1c2c(cncc2Nc2ccc(I)cc2F)CCN1OCCO` [Compound 5.010], the IC50 on MAP2K1 (MEK1) lay within 0.15 to 1.5 µM.
With `CCON1CCc2cncc(Nc3ccc(I)cc3F)c2C1=O` [Compound 5.011, 2-ethoxy-8-((2-fluoro-4-iodophenyl)amino)-3,4-dihydro-2,6-naphthyridin-1(2H)-one], the 50% inhibitory concentration (IC50) on MAP2K1 (MEK1) was 0.15 to 1.5 µM.
On the same count and under the same terms, in the case of `O=C1NCCc2cncc(Nc3ccc(I)cc3F)c21` [Compound 5.012] it was 0.15 to 1.5 µM.

Values taken from patent US20230013227A1, “ARYL-ANILINE AND HETEROARYL-ANILINE COMPOUNDS FOR TREATMENT OF BIRTHMARKS” (NFlection Therapeutics, Inc., priority 2018, published 2023).
